Data on 21 molecules can be found in PMC2430196, “Antagonist affinity measurements at the Gi-coupled human histamine H3 receptor expressed in CHO cells” (BMC Pharmacology, 2008).

The target of assay [1] is T1, human histamine H3 receptor (Homo sapiens, UniProt Q9Y5N1). The experiment in a line: CRE-SPAP gene transcription in forskolin-stimulated CHO-H3-SPAP cells. As to conditions: for pIC50, CRE-SPAP: agonism, inhibition of 4 μM forskolin-stimulated CRE-SPAP production; for pIC50, CRE-SPAP / agonist character in CRE-SPAP screen: CHO-H3-SPAP cells; for Kd / Schild slope: CRE-SPAP; for agonist character in CRE-SPAP screen: inhibition of forskolin-stimulated CRE-SPAP production; for Schild slope: 3 antagonist concentrations.
Protocol: (§1) The transfected cells were selected for neomycin resistance (1 mg/ml; for H3 receptor) and hygromycin resistance (200 μg/ml; for CRE-SPAP reporter gene) for 3 weeks and passaged twice during in this period. A single clone was then isolated by dilution cloning to give a clonal line (CHO-H3-SPAP cells). The parent cell CRE-SPAP was also used for control experiments (CHO-SPAP cells).
(§2) Cells were grown to confluence in 96-well tissue culture plates. The cells were then serum starved by removing the media and replacing it with 100 μl serum free media (DMEM/F12 containing 2 mM L-glutamine). […] Where used, pertussis toxin, at a final concentration of 100 ng/ml was added to the serum-free media and thus incubated with the cells for 24 hours. On the day of experimentation, the serum-free media was removed and replaced with 100 μl serum-free media or 100 μl serum-free media containing an antagonist at the final required concentration and the cells incubated for 1 hour. Agonist in 10 μl (diluted in serum free media) was then added to each well and the cells incubated for 10 minutes. Forskolin was then added to all but the basal wells to give a final well concentration of 4 μM and the plates incubated for 5 hours. After 5 hours, the media and all drugs were removed. […] The plates were then incubated at 65°C for 30 minutes to destroy any endogenous phosphatases. After cooling to 37°C, 100 μl 5 mM pNPP in diethanolamine buffer was added to each well and the plates incubated at 37°C in a normal atmosphere until the yellow colour developed.
(§3) Sigmoidal concentration-response curves were fitted to the data using Graphpad Prism 2 and the following equation:
(§4) Antagonist KD values were then calculated from the shift of the agonist concentration responses in the presence of a fixed concentration of antagonist using the following equation:
(§5) where DR (dose ratio) is the ratio of the agonist concentration required to stimulate an identical response in the presence and absence of a fixed concentration of antagonist [B].
(§6) In experiments where three different fixed concentrations of the same antagonist were used, Schild plots were constructed using the following equation:
Log (DR-1) = log [B] - log (KD)
(§7) These points were then fitted to a straight line.
(§8) Partial agonist dissociation constants were therefore estimated according to the method of Stephenson [35] using the following equation:
(§9) KD partial agonist=X.[P]/1−Xwhere X=[A2]−[A1]/[A3]

Assay [2] deals with T1, human histamine H3 receptor. The experiment in a line: 3H-cAMP accumulation in forskolin-stimulated CHO-H3-SPAP cells. In kind it is cell-based. Also on record: secondarily transfected with the full length human histamine H3 receptor; host or cells: CHO-K1 cells with CRE-SPAP reporter (clonal line CHO-H3-SPAP). As to conditions: for intrinsic activity response in 3H-cAMP accumulation: n = 4. How it is done:
Cells were grown to confluence in 24-well plates. The media was removed and the cells pre-labelled with ^3H-adenine by incubation with 2 μCi/ml ^3H-adenine in serum-free media (0.5 ml per well) for 3 hours. The ^3H-adenine was then removed and the cells washed by the addition then removal of 1 ml serum-free media. […] Forskolin (final concentration of 10 μM) was then added to all but the basal wells and the plates incubated for 30 minutes. The reaction was terminated by the addition of 50 μl concentrated HCl per well and the plates were then frozen. Later, the plates were thawed and ^3H-cAMP separated from other ^3H-nucleotides by sequential Dowex and alumina column chromatography, as previously described.
When the intrinsic efficacy of the antagonist ligands was examined, the antagonists were incubated for 5 hours at 37°C in order to maximise the chance of detecting any changes in ^3H-cAMP accumulation.
Response=Emax×[A]/IC50+[A]
Background: cAMP levels reflect the balance of adenylyl cyclase and phosphodiesterase activity.

Assay [3] shares this target. As to the kind of experiment: cell-based.
Protocol: as §1, §2, §3, §4, §5, §6
Log (DR-1) = log [B] - log (KD)
as §7, §8, §9
The test system of assay [4] is CHO-SPAP cells. The experiment in a line: CRE-SPAP gene transcription in parent CHO-SPAP cells (without the H3 receptor). In kind it is cell-based, Chinese hamster. The conditions noted are these: presence and absence of 4 μM forskolin, up to 100 μM (10 μM for zolatidine, conessine, iodophenpropit, clobenpropit, clemastine). How it is done:
The response to all ligand used in this study was examined in the parent CHO-SPAP cells (expressing the reporter but not the human H3 receptor). Full 7-point concentration response curves were constructed, in the presence and absence of 4 μM forskolin. […].

[5] abbreviates: agonism, inhibition of 10 μM forskolin-stimulated 3H-cAMP accumulation, CHO-H3-SPAP cells.
Setting [6] is: agonism, inhibition of 10 μM forskolin-stimulated 3H-cAMP accumulation, CHO-H3-SPAP cells, read-out: pIC50, 3H-cAMP accumulation (converted).
[7] abbreviates: Log KD values, agonist N-α-methylhistamine.
Setting [8] is: Log KD values, agonist R-α-methylhistamine.
Setting [9] is: Log KD values, agonist S-α-methylhistamine.
[10] abbreviates: Log KD values, agonist VUF 8430.
Where [11] appears, read: Log KD values, agonist histamine.
Where [12] appears, read: Log KD values, agonist immethridine.
Setting [13] is: Log KD values, agonist proxyfan.
Setting [14] is: Log KD values, agonist impentamine (first component of the response).

As usually defined, the Kd is the free concentration of one partner at which half of the binding sites on the other are occupied at equilibrium, for simple one-to-one binding.

T1 sequence (Q9Y5N1 whole entry): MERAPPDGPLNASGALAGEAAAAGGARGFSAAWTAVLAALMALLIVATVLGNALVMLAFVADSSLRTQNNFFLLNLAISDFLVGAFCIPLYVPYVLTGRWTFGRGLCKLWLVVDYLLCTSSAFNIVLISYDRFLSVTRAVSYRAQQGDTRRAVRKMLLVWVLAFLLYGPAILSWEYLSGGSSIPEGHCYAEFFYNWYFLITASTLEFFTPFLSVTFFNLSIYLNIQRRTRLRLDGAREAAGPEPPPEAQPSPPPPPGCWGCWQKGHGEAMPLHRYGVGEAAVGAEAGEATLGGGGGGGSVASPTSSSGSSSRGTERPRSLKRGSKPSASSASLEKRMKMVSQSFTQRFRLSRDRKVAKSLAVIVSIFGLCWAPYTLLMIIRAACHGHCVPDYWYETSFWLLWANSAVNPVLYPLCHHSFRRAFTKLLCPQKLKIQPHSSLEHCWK

In turn, `Cn1cnc(CCN)c1` [1-methylhistamine] gave an IC50 in assay [1] of 20000 nM.
Still for that read-out and setting: the figure for `NCCc1ccccn1` [2-pyridylethylamine] is over 100000 nM; for `Cn1cncc1CCN` [3-methylhistamine] it is 13500 nM; for `Cc1nc[nH]c1CCN` [4-methylhistamine] it is 11500 nM.
`CC(CCCCC(=O)Nc1ccc(C(F)(F)F)cc1)NCCc1cnc[nH]1` (stereo not drawn) [HTMT, histamine trifluoromethyl toluidide]: in assay [1], the “pIC50, CRE-SPAP” value is reported as 5.21 ± 0.18.
For the molecule `CNCCc1cnc[nH]1` [N-α-methylhistamine], the “pIC50, 3H-cAMP accumulation” value in assay [2] (setting [5]) is listed as 9.45 ± 0.05. For the same molecule, in assay [1], the “pIC50, CRE-SPAP” value is reported as 8.89 ± 0.04.
For `Br.Br.c1nc(CCCC2CCNCC2)c[nH]1` [VUF 5681, 4-[3-(1H-imidazol-4-yl)propyl]piperidine dihydrobromide], the IC50 was 3.89 nM in assay [2] (setting [6]); 3.8 nM in assay [2] (pIC50, 3H-cAMP accumulation, 5 hours incubation, partial agonist response, 5 hours incubation with ligand); 25.1 nM in assay [1]. Moreover, the Kd is 19.1 nM in assay [3]; 11.2 nM in assay [1] (setting [7]); 25.1 nM in assay [1] (setting [8]); 17.8 nM in assay [1] (setting [9]); 19.5 nM in assay [1] (setting [10]); 17 nM in assay [1] (setting [11]). The dissociation constant Kd was 14.1 nM in assay [1] (Log KD values, agonist imetit); 16.2 nM in assay [1] (setting [12]); 15.8 nM in assay [1] (setting [13]). Besides, the “CRE-SPAP response in parent CHO-SPAP cells” value in assay [4] is given as “A small decrease from maximum was seen only at the highest concentration (100 μM)”. Further, the “agonist character in CRE-SPAP screen” value in assay [1] is “agonist properties”.
With `Br.Br.N=C(N)NCCSC(=N)N` [VUF 8430, 2-[(aminoiminmethyl)amino]ethyl carbamimidothioic acid ester dihydrobromide], the “pIC50, 3H-cAMP accumulation” value in assay [2] (setting [5]) is recorded as 6.38 ± 0.07. For the same molecule, in assay [1], the “pIC50, CRE-SPAP” value was determined as 5.66 ± 0.08.
In assay [1], `Cc1nc(N)sc1CCN` [amthamine] showed an IC50 of 13500 nM.
Take `CNC(=S)NCCCCc1cnc[nH]1` [burimamide]: the IC50 in assay [2] (setting [6]) is 224 nM. For the same molecule, in assay [1], the IC50 is 427 nM and the “agonist character in CRE-SPAP screen” value was “partial agonist actions”.
For `CN(C)CCC(c1ccc(Cl)cc1)c1ccccn1` (stereo not drawn) [chlorpheniramine], the “intrinsic activity response in 3H-cAMP accumulation” value (shortened to “intrinsic activity response”) in assay [2] (5 hours incubation with ligand) is listed as “No responses”. Besides, the dissociation constant (Kd) in assay [3] was 2570 nM; in assay [1] (setting [7]), 3090 nM; in assay [1] (setting [8]), 3630 nM; in assay [1] (setting [9]), 3630 nM; in assay [1] (setting [10]), 7410 nM; in assay [1] (setting [11]), 4790 nM. Further, the dissociation constant Kd in assay [1] (Log KD values, agonist imetit) is 2630 nM; in assay [1] (setting [12]) it was 2950 nM; in assay [1] (setting [14]), 6170 nM; in assay [1] (setting [13]), 4070 nM.
In the case of `NC(=NCc1ccc(Cl)cc1)SCCCc1cnc[nH]1` [clobenpropit], the “intrinsic activity response” value in assay [2] (5 hours incubation with ligand) is recorded as “No responses”. The Schild slope in assay [1] (agonist N-α-methylhistamine) was 1.08 ± 0.07; in assay [1] (agonist R-α-methylhistamine) it was 1.10 ± 0.06; in assay [1] (agonist S-α-methylhistamine), 1.09 ± 0.04; in assay [1] (agonist histamine) it was 0.98 ± 0.03; in assay [1] (agonist imetit), 1.02 ± 0.04; in assay [1] (agonist immepip), 1.05 ± 0.02. The molecule further yielded a Schild slope in assay [1] (agonist immethridine) of 1.02 ± 0.04.
Regarding `C[C@H]1[C@H]2CC[C@H]3[C@@H]4CC=C5C[C@@H](N(C)C)CC[C@]5(C)[C@H]4CC[C@]23CN1C` [conessine], the “inverse agonist response, 3H-cAMP accumulation” value in assay [2] (5 hours incubation with ligand) was 120 ± 1.5 % basal. The EC50 in assay [2] (5 hours incubation with ligand, read-out: pEC50, inverse agonist response, 3H-cAMP accumulation (converted)) is 3.09 nM. The Kd in assay [3] was 8.13 nM; in assay [1] (pKD values, agonist N-α-methylhistamine), 5.37 nM; in assay [1] (pKD values, agonist R-α-methylhistamine), 5.75 nM; in assay [1] (pKD values, agonist S-α-methylhistamine), 5.25 nM; in assay [1] (pKD values, agonist VUF 8430) it was 7.08 nM; in assay [1] (pKD values, agonist histamine), 5.13 nM. Moreover, the Kd is 5.75 nM in assay [1] (pKD values, agonist imetit); 3.8 nM in assay [1] (pKD values, agonist immethridine); 4.17 nM in assay [1] (pKD values, agonist impentamine (first component of the response)); 2.75 nM in assay [1] (pKD values, agonist proxyfan). In addition, the Schild slope in assay [1] (agonist N-α-methylhistamine) worked out at 0.98 ± 0.05; in assay [1] (agonist R-α-methylhistamine), 1.00 ± 0.06; in assay [1] (agonist S-α-methylhistamine) it was 1.08 ± 0.04; in assay [1] (agonist histamine), 1.07 ± 0.03; in assay [1] (agonist imetit), 1.18 ± 0.09; in assay [1] (agonist immepip) it was 1.09 ± 0.05. Further, in assay [1] (agonist immethridine), the Schild slope is recorded as 1.14 ± 0.08.
In assay [1], `CN(C)CCCSC(=N)N` [dimaprit] gave an IC50 of 2570 nM.
Regarding `CC(C1=C(CCN(C)C)Cc2ccccc21)c1ccccn1` (stereo not drawn) [dimethindine, dimethindene], in assay [2] (5 hours incubation with ligand), the “intrinsic activity response” value is “No responses”. In addition, the equilibrium dissociation constant (Kd) in assay [3] is 1910 nM; in assay [1] (setting [7]) it was 2140 nM; in assay [1] (setting [8]) it was 2240 nM; in assay [1] (setting [9]) it was 2140 nM; in assay [1] (setting [10]) it was 7760 nM; in assay [1] (setting [11]), 2340 nM. In addition, the equilibrium dissociation constant (Kd) in assay [1] (Log KD values, agonist imetit) is 2510 nM; in assay [1] (setting [12]), 4170 nM; in assay [1] (setting [14]), 2570 nM; in assay [1] (setting [13]), 5750 nM.
As to `N=C(N)SCCc1cnc[nH]1` [imetit], the IC50 is 0.123 nM in assay [2] and 0.437 nM in assay [1].
Taken in the same sequence, the figures for `c1nc(CC2CCNCC2)c[nH]1` [immepip] were 0.0501 nM and 0.224 nM.
The corresponding values for `c1cc(Cc2cnc[nH]2)ccn1` [immethridine] are 0.174 nM and 0.389 nM.
Turning to `c1ccc(COCCCc2c[nH]cn2)cc1` [proxyfan], the IC50 was 4.9 nM in assay [2] (setting [6]) and 16.2 nM in assay [1].
Consider `S=C(NC1CCCCC1)N1CCC(c2cnc[nH]2)CC1` [thioperamide], for which the “inverse agonist response, 3H-cAMP accumulation” value in assay [2] (5 hours incubation with ligand) is on record as 106.3 ± 2.6 % basal. The Schild slope in assay [1] (agonist N-α-methylhistamine) was 0.98 ± 0.07; in assay [1] (agonist R-α-methylhistamine) it was 1.00 ± 0.05; in assay [1] (agonist S-α-methylhistamine), 1.01 ± 0.08; in assay [1] (agonist histamine) it was 1.01 ± 0.03; in assay [1] (agonist imetit), 1.02 ± 0.07; in assay [1] (agonist immepip), 1.06 ± 0.02. In addition, the Schild slope in assay [1] (agonist immethridine) worked out at 1.08 ± 0.04; in assay [1] (agonist proxyfan), 1.02 ± 0.03.
Consider `Cc1ccc(/C(=C\CN2CCCC2)c2ccccn2)cc1` [triprolidine], for which, in assay [2] (5 hours incubation with ligand), the “intrinsic activity response” value is given as “No responses”. Besides, the Kd in assay [3] is 2450 nM; in assay [1] (setting [7]), 4570 nM; in assay [1] (setting [8]) it was 2630 nM; in assay [1] (setting [9]) it was 3390 nM; in assay [1] (setting [10]), 5500 nM; in assay [1] (setting [11]), 4470 nM. Moreover, the dissociation constant Kd in assay [1] (Log KD values, agonist imetit) is 3720 nM; in assay [1] (setting [12]) it was 2950 nM; in assay [1] (setting [14]) it was 2240 nM; in assay [1] (setting [13]), 5890 nM.
